Measurements: article PMC4832243, “Discovery of Potent VEGFR-2 Inhibitors based on Furopyrimidine and Thienopyrimidne Scaffolds as Cancer Targeting Agents” (Scientific Reports, 2016)

Legend:
SR = assay: NCI 60 cell line panel (SRB), SR; assay type: cell-based; details: Homo sapiens, Leukemia, single dose of 10 μM, read-out: Cell Growth Percent
SF-539 = assay: NCI 60 cell line panel (SRB), SF-539; assay type: cell-based; details: Homo sapiens; SF-539, CNS Cancer; single dose of 10 μM; read-out: Cell Growth Percent
MOLT-4 = assay: NCI 60 cell line panel (SRB), MOLT-4; assay type: cell-based; details: Homo sapiens; MOLT-4, Leukemia; single dose of 10 μM; read-out: Cell Growth Percent
PC-3 = assay: NCI 60 cell line panel (SRB), PC-3; assay type: cell-based; details: Homo sapiens; PC-3, Prostate Cancer; single dose of 10 μM; read-out: Cell Growth Percent
NCI-H23 = assay: NCI 60 cell line panel (SRB), NCI-H23; assay type: cell-based; details: Homo sapiens; NCI-H23, Non-Small Cell Lung Cancer; single dose of 10 μM; read-out: Cell Growth Percent
SNB-75 = assay: NCI 60 cell line panel (SRB), SNB-75; assay type: cell-based; details: Homo sapiens; SNB-75, CNS Cancer; single dose of 10 μM; read-out: Cell Growth Percent
MDA-MB-231/ATCC = assay: NCI 60 cell line panel (SRB), MDA-MB-231/ATCC; assay type: cell-based; details: Homo sapiens, Breast Cancer, single dose of 10 μM, read-out: Cell Growth Percent
CCRF-CEM = assay: NCI 60 cell line panel (SRB), CCRF-CEM; assay type: cell-based; details: Homo sapiens, Leukemia, single dose of 10 μM, read-out: Cell Growth Percent
HOP-92 = assay: NCI 60 cell line panel (SRB), HOP-92; assay type: cell-based; details: Homo sapiens; HOP-92, Non-Small Cell Lung Cancer; single dose of 10 μM; read-out: Cell Growth Percent
SK-MEL-5 = assay: NCI 60 cell line panel (SRB), SK-MEL-5; assay type: cell-based; details: Homo sapiens; SK-MEL-5, Melanoma; single dose of 10 μM; read-out: Cell Growth Percent
HS 578T = assay: NCI 60 cell line panel (SRB), HS 578T; assay type: cell-based; details: Homo sapiens, Breast Cancer, single dose of 10 μM, read-out: Cell Growth Percent
DU-145 = assay: NCI 60 cell line panel (SRB), DU-145; assay type: cell-based; details: Homo sapiens; DU-145, Prostate Cancer; single dose of 10 μM; read-out: Cell Growth Percent
HCC-2998 = assay: NCI 60 cell line panel (SRB), HCC-2998; assay type: cell-based; details: Homo sapiens; HCC-2998, Colon Cancer; single dose of 10 μM; read-out: Cell Growth Percent
[1] = tested on: HUVEC umbilical vein endothelial cells; assay: In vitro HUVEC anti-proliferative assay (alamarBlue); assay type: cell-based; details: Homo sapiens, HUVEC proliferation at 10 μM, 72 hours; for activity at 10 µM: read-out: % Cell growth; for inhibition at 10 µM: read-out: % Cell inhibition
SF-268 = assay: NCI 60 cell line panel (SRB), SF-268; assay type: cell-based; details: Homo sapiens; SF-268, CNS Cancer; single dose of 10 μM; read-out: Cell Growth Percent
VEGFR-2 (KDR) = target: T1, VEGFR-2 (KDR) (Homo sapiens, UniProt P35968); assay: In vitro VEGFR-2 tyrosine kinase activity (Kinase-Glo Plus luminescence, BPS Bioscience); assay type: biochemical; details: for IC50: 5 concentrations 1 nM - 10 μM
T1 construct: purchased BPS Bioscience 40301
T1 sequence (P35968 20-1356): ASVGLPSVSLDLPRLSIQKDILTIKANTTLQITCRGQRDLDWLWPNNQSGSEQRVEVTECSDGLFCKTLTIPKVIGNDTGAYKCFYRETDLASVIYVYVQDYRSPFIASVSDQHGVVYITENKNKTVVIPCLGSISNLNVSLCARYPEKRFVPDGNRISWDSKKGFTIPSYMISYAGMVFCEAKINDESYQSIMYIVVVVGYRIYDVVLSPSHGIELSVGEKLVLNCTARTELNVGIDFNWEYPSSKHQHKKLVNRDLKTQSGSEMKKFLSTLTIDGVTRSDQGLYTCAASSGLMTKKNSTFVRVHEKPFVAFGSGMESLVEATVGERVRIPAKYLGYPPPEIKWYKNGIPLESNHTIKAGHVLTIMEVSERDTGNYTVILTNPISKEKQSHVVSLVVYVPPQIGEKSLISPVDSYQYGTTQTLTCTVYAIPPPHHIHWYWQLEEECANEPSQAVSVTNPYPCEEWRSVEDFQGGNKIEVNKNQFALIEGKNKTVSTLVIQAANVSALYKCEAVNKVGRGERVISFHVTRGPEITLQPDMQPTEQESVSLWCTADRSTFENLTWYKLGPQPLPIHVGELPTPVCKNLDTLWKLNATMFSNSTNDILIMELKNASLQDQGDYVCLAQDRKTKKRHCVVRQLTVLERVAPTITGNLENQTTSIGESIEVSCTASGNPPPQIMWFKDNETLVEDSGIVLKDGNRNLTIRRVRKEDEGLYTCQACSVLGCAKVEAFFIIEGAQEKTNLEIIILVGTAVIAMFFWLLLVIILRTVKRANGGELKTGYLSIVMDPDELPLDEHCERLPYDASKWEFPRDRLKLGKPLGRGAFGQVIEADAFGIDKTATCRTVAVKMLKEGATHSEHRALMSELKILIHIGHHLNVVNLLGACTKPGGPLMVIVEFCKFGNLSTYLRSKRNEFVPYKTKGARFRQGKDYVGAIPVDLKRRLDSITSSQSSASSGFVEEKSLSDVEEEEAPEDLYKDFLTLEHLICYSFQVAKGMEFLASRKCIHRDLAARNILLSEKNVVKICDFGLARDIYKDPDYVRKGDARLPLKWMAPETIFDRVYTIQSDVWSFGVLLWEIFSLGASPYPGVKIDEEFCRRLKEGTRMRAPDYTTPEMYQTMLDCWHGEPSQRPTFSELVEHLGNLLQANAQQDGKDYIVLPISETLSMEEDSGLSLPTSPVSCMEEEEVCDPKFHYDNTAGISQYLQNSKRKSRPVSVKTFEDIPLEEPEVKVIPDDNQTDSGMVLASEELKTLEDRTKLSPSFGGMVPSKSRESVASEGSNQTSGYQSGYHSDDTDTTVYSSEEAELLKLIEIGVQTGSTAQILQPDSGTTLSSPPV

SW-620 = assay: NCI 60 cell line panel (SRB), SW-620; assay type: cell-based; details: Homo sapiens; SW-620, Colon Cancer; single dose of 10 μM; read-out: Cell Growth Percent
UACC-257 = assay: NCI 60 cell line panel (SRB), UACC-257; assay type: cell-based; details: Homo sapiens; UACC-257, Melanoma; single dose of 10 μM; read-out: Cell Growth Percent
HCT-15 = assay: NCI 60 cell line panel (SRB), HCT-15; assay type: cell-based; details: Homo sapiens; HCT-15, Colon Cancer; single dose of 10 μM; read-out: Cell Growth Percent
RXF 393 = assay: NCI 60 cell line panel (SRB), RXF 393; assay type: cell-based; details: Homo sapiens; RXF 393, Renal Cancer; single dose of 10 μM; read-out: Cell Growth Percent
OVCAR-5 = assay: NCI 60 cell line panel (SRB), OVCAR-5; assay type: cell-based; details: Homo sapiens; OVCAR-5, Ovarian Cancer; single dose of 10 μM; read-out: Cell Growth Percent
NCI-H522 = assay: NCI 60 cell line panel (SRB), NCI-H522; assay type: cell-based; details: Homo sapiens; NCI-H522, Non-Small Cell Lung Cancer; single dose of 10 μM; read-out: Cell Growth Percent
HL-60(TB) = assay: NCI 60 cell line panel (SRB), HL-60(TB); assay type: cell-based; details: Homo sapiens, Leukemia, single dose of 10 μM, read-out: Cell Growth Percent
A498 = assay: NCI 60 cell line panel (SRB), A498; assay type: cell-based; details: Homo sapiens; A498, Renal Cancer; single dose of 10 μM; read-out: Cell Growth Percent
c-Raf = c-Raf (Homo sapiens, UniProt P04049); assay: In vitro multiple-kinase inhibition assay, c-Raf; assay type: biochemical
c-Raf, sequence (P04049 whole entry, species assumed): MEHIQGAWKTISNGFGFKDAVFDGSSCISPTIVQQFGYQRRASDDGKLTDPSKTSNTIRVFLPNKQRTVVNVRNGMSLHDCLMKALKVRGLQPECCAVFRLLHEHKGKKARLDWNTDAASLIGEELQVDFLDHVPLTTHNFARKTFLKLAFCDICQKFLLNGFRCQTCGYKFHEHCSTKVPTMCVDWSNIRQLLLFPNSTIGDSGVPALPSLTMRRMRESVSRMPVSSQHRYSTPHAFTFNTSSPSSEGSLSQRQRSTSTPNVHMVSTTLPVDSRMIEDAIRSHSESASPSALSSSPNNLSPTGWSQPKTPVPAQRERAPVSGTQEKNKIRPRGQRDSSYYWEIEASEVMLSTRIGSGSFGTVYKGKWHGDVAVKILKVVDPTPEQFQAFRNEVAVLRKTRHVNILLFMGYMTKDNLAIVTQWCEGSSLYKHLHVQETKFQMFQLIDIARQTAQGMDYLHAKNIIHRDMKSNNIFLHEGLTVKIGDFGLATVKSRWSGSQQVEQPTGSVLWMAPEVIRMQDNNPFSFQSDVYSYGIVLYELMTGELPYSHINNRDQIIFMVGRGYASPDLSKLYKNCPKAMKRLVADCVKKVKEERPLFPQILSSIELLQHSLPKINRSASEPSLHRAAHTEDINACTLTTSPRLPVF
Protocol: (§1) In vitro multiple-kinase inhibition assay. […] Kinase enzymatic activity of the tested compounds was evaluated against a reference kinase inhibitor at 10 μM (Table 2).
(§2) The multiple kinases activity at single dose concentration of 10 μM was performed, c-Kit, c-Raf, c-Src, RET served as the enzyme source. […] Kinase-Glo Plus Luminescence kinase assay kit (Promega#V3772), ADP-Glo Luminescence assay kit was used for c-kit assay (Supplementary). […]
(§3) mM MgCl2, 0.1 mg/ml BSA, 1 mM DTT, 10 µM ATP, Kinase substrate and VEGFR. After the enzymatic reaction, 50 µl of Kinase-Glo Plus Luminescence kinase assay solution (Promega) was added to each reaction and incubate the plate for 5 minutes at room temperature.
(§4) Luminescence signal was measured using a BioTek Synergy 2 microplate reader. VEGFR activity assays were performed in duplicate at each concentration.
(§5) The luminescence data were analyzed using the computer software, Graphpad Prism. The difference between luminescence intensities in the absence of VEGFR (Lut) and in the presence of VEGFR (Luc) was defined as 100 % activity (Lut – Luc). Using luminescence signal (Lu) in the presence of the compound, % activity was calculated as:
(§6) % activity = {(Lut - Lu)/(Lut - Luc)}×100%, where Lu= the luminescence intensity in the […]
(§7) IC50 determination for inhibitor against VEGFR was calculated. The values of % activity versus a series of compound concentrations (1 nM - 10 nM - 100 nM - 1 µM - 10 µM) were then […]
(§8) or Hill coefficient. The IC50 value was determined by the concentration causing a half-maximal […]
(§9) In vitro multiple-kinase inhibition assay
(§10) Luminescence signal was measured using a BioTek Synergy 2 microplate reader […]
(§11) The luminescence data were analyzed using the same computer software and the same protocol

RET = RET (Homo sapiens, UniProt P07949); assay: In vitro multiple-kinase inhibition assay, RET; assay type: biochemical
RET, sequence (P07949 29-1114, species assumed): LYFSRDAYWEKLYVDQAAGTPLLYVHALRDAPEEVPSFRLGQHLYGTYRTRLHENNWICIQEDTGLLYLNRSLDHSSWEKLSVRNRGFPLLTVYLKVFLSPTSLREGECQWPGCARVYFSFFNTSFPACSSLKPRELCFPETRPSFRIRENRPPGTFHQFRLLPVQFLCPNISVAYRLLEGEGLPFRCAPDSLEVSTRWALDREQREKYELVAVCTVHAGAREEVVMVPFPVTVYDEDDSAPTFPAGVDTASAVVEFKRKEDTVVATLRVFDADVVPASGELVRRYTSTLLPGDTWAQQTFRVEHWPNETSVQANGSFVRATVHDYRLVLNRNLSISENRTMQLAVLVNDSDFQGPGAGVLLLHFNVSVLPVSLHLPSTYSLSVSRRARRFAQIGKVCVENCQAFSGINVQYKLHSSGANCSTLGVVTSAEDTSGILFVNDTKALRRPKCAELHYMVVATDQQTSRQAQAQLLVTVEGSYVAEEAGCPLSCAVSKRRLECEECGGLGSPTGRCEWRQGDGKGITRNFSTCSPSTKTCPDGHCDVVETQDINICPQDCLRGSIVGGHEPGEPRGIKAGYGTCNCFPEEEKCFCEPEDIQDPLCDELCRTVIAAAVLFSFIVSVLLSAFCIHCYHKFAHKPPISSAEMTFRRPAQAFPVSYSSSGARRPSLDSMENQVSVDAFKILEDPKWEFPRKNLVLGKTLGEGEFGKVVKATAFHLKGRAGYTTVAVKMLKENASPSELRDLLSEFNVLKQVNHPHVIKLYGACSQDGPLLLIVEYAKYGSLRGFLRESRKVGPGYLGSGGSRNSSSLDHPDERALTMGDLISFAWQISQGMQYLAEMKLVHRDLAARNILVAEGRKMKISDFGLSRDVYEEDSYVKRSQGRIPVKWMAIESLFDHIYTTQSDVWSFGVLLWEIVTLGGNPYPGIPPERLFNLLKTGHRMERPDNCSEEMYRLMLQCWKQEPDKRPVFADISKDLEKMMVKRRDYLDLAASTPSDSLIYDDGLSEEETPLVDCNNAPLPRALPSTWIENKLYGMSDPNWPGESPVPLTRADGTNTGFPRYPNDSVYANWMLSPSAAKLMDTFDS
Protocol: as §1, §2, §3, §4, §5, §6, §7, §8, §9, §10, §11

SMILES | activity at 10 µM (SR) [%] | activity at 10 µM (SF-539) [%] | activity at 10 µM (MOLT-4) [%] | activity at 10 µM (PC-3) [%] | activity at 10 µM (NCI-H23) [%] | activity at 10 µM (SNB-75) [%] | activity at 10 µM (MDA-MB-231/ATCC) [%] | activity at 10 µM (CCRF-CEM) [%] | activity at 10 µM (HOP-92) [%] | activity at 10 µM (SK-MEL-5) [%] | activity at 10 µM (HS 578T) [%] | activity at 10 µM (DU-145) [%] | activity at 10 µM (HCC-2998) [%] | activity at 10 µM [1] [%] | inhibition at 10 µM [1] [%] | activity at 10 µM (SF-268) [%] | IC50 (VEGFR-2 (KDR)) [nM] | activity at 10 µM (SW-620) [%] | activity at 10 µM (UACC-257) [%] | activity at 10 µM (HCT-15) [%] | other results
O=C(Nc1ccccc1)Nc1ccc(Oc2ncnc3sc4c(c23)CCCC4)cc1 [Compound 21a] | 24.3 | 44 | 54 | 33.4 | 66.4 | 45.6 | 66.2 | 64.9 | 78.4 | 67.9 | 73.6 | 86.1 | 89.6 | 35.7 | 64.3 | 76.3 | 454 | 92 | 90.4 | 49.2 | inhibition at 10 µM (VEGFR-2 (KDR); single dose concentration of 10 μM): > 70%; activity at 10 µM (RXF 393): 72%; activity at 10 µM (OVCAR-5): 107%; activity at 10 µM (NCI-H522): 15.6%; activity at 10 µM (HL-60(TB)): 102%; activity at 10 µM (A498): 56.7%
Cc1cccc(NC(=O)Nc2ccc(Oc3ncnc4sc5c(c34)CCCC5)cc2)c1 [Compound 21b] | 55.8 | 59.3 | 58.1 | 37.5 | 72.4 | 51.9 | 81.9 | 70 | 80.9 | 72.9 | 76.8 | 81.3 | 104 | 18 | 82 | 72.6 | 33.4 | 103 | 107 | 74.9 | inhibition at 10 µM (c-Raf): 35%; inhibition at 10 µM (RET): 87%; activity at 10 µM (RXF 393): 79%; activity at 10 µM (OVCAR-5): 114%; activity at 10 µM (NCI-H522): 16.1%; activity at 10 µM (HL-60(TB)): 98.4%; activity at 10 µM (A498): 68.3%
COc1cccc(NC(=O)Nc2ccc(Oc3ncnc4sc5c(c34)CCCC5)cc2)c1 [Compound 21c] | 50.9 | 53 | 46.9 | 45 | 67.7 | 50.3 | 69.6 | 64.4 | 79 | 63.6 | 60.9 | 82.4 | 102 | 20.9 | 79.2 | 72 | 47 | 96.3 | 100 | 67.1 | inhibition at 10 µM (c-Raf): 26%; inhibition at 10 µM (RET): 91%; activity at 10 µM (RXF 393): 74%; activity at 10 µM (OVCAR-5): 105%; activity at 10 µM (NCI-H522): 21%; activity at 10 µM (HL-60(TB)): 106%; activity at 10 µM (A498): 67.8%
